US20250221410A1, “SUBSTITUTED 2-C-AZINES AND SALTS THEREOF, AND USE THEREOF AS HERBICIDAL ACTIVE SUBSTANCES” (BAYER AKTIENGESELLSCHAFT, priority 2022, published 2025)

Key:
Format in all cases: in vivo
[1] = system: DIGSA: Digitaria sanguinalis; test: Pre-emergence herbicide efficacy at 1280 g/ha, DIGSA; conditions: visual scoring after about 3 weeks vs untreated controls
Procedure, shortened: (§1)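 Efficacy is a visual percentage rating against untreated controls, taken about 3 weeks after soil-surface application to freshly sown, soil-covered seeds in sandy loam.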

[2] = system: AMARE: Amaranthus retroflexus; test: Post-emergence herbicidal efficacy at 1280 g/ha, AMARE; conditions: rated visually after about 3 weeks vs untreated controls, 100% = plants have died, 0% = like control plants
Procedure, shortened: (§2)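 Weeds grown in sandy loam in the greenhouse were sprayed at the one-leaf stage, 2 to 3 weeks after sowing, with WP or EC formulations in water plus 0.5% additive at 600 L/ha. Damage was scored visually about 3 weeks later against untreated controls (0% = like control, 100% = plants dead).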

[3] = system: POAAN: Poa annua; test: Pre-emergence herbicide efficacy at 1280 g/ha, POAAN; conditions: visual scoring after about 3 weeks vs untreated controls
Procedure, shortened: as §1

[4] = system: STEME: Stellaria media; test: Post-emergence herbicidal efficacy at 1280 g/ha, STEME; conditions: visual rating about 3 weeks after treatment vs untreated controls
Procedure, shortened: as §2

[5] = system: SETVI: Setaria viridis; test: Pre-emergence herbicide efficacy at 1280 g/ha, SETVI; conditions: visual scoring vs untreated controls
Procedure, shortened: as §1

[6] = system: AMARE: Amaranthus retroflexus; test: Post-emergence herbicidal efficacy at 80 g/ha, AMARE; conditions: visual rating about 3 weeks after treatment vs untreated controls
Procedure, shortened: (§3)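 Sow in sandy loam and grow in the greenhouse for 2 to 3 weeks. Spray the green parts at the one-leaf stage with a WP or EC suspension or emulsion plus 0.5% additive at 600 l/ha water. Keep plants about 3 weeks, then score damage visually against controls.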

[7] = system: LOLRI: Lolium rigidum; test: Post-emergence herbicidal efficacy at 1280 g/ha, LOLRI; conditions: visual rating about 3 weeks after treatment vs untreated controls
Method: (§4) Seeds of mono- and dicotyledonous weed plants were placed in plastic pots in sandy loam soil (doubly sown with in each case one species of mono- or dicotyledonous weed plants per pot), covered with soil and cultivated in a greenhouse under controlled growth conditions. 2 to 3 weeks after sowing, the test plants were treated at the one-leaf stage. The compounds of the invention, formulated in the form of wettable powders (WP) or as emulsion concentrates (EC), were applied to the green parts of the plants as aqueous suspension or emulsion with addition of 0.5% additive at a water application rate equivalent to 600 litres per hectare. After the test plants had been kept in the greenhouse under optimum growth conditions for about 3 weeks, the activity of the preparations was rated visually in comparison to untreated controls. For example, 100% activity=the plants have died, 0% activity=like control plants. Tables A1 to A12 below show the effects of selected compounds of the general formula (I) according to Table 1 on various harmful plants and at an application rate corresponding to 1280 g/ha, which were obtained by the trial procedure specified above.

[8] = system: STEME: Stellaria media; test: Pre-emergence herbicide efficacy at 1280 g/ha, STEME; conditions: visual scoring vs untreated controls
Procedure, shortened: as §1

[9] = system: VIOTR: Viola tricolor; test: Pre-emergence herbicide efficacy at 80 g/ha, VIOTR; conditions: scored visually after about 3 weeks
Text: Seeds of monocotyledonous and dicotyledonous weed plants and crop plants were placed in plastic or organic planting pots and covered with soil. The compounds of the invention, formulated in the form of wettable powders (WP) or as emulsion concentrates (EC), were then applied to the surface of the covering soil as aqueous suspension or emulsion with addition of 0.5% additive at a water application rate equivalent to 600 l/ha. After the treatment, the pots were placed in a greenhouse and kept under good growth conditions for the test plants. After about 3 weeks, the efficacy of the preparations was scored visually in comparison with untreated controls as percentages. For example, 100% activity=the plants have died, 0% activity=like control plants. Tables D1 to D12 below show the effects of selected compounds of the general formula (I) according to Table 1 on various harmful plants and an application rate corresponding to 80 g/ha, which were obtained by the experimental procedure mentioned above.

[10] = system: VERPE: Veronica persica; test: Post-emergence herbicidal efficacy at 80 g/ha, VERPE; conditions: visual rating about 3 weeks after treatment vs untreated controls
Procedure, shortened: as §3

[11] = system: KCHSC: Kochia scoparia; test: Pre-emergence herbicide efficacy at 1280 g/ha, KCHSC; conditions: visual scoring after about 3 weeks vs untreated controls
Procedure, shortened: as §1

[12] = system: LOLRI: Lolium rigidum; test: Pre-emergence herbicide efficacy at 1280 g/ha, LOLRI; conditions: visual scoring after about 3 weeks vs untreated controls
Text: (§5) Seeds of mono- and dicotyledonous weed plants were placed in plastic pots in sandy loam soil (doubly sown with one species each of mono- or dicotyledonous weed plants per pot) and covered with soil. The compounds of the invention, formulated in the form of wettable powders (WP) or as emulsion concentrates (EC), were then applied to the surface of the covering soil as aqueous suspension or emulsion with addition of 0.5% additive at a water application rate of 600 litres per hectare (converted). After the treatment, the pots were placed in a greenhouse and kept under good growth conditions for the test plants. After about 3 weeks, the efficacy of the preparations was scored visually in comparison with untreated controls as percentages. For example, 100% activity=the plants have died, 0% activity=like control plants. Tables C1 to C12 below show the effects of selected compounds of the general formula (I) according to Table 1 on various harmful plants and at an application rate corresponding to 1280 g/ha, which were obtained by the trial procedure specified above.

[13] = system: KCHSC: Kochia scoparia; test: Post-emergence herbicidal efficacy at 1280 g/ha, KCHSC; conditions: visual rating about 3 weeks after treatment vs untreated controls
Procedure, shortened: as §2

[14] = system: ABUTH: Abutilon theophrasti; test: Post-emergence herbicidal efficacy at 1280 g/ha, ABUTH; conditions: rated visually after about 3 weeks vs untreated controls, 100% = plants have died, 0% = like control plants
Procedure, shortened: as §2

[15] = system: ALOMY: Alopecurus myosuroides; test: Post-emergence herbicidal efficacy at 1280 g/ha, ALOMY; conditions: rated visually after about 3 weeks vs untreated controls, 100% = plants have died, 0% = like control plants
Method: as §4

[16] = system: ECHCG: Echinochloa crus-galli; test: Pre-emergence herbicide efficacy at 1280 g/ha, ECHCG; conditions: visual scoring after about 3 weeks vs untreated controls
Procedure, shortened: as §1

[17] = system: VIOTR: Viola tricolor; test: Post-emergence herbicidal efficacy at 80 g/ha, VIOTR; conditions: visual rating about 3 weeks after treatment vs untreated controls
Method: (§6) Seeds of monocotyledonous and dicotyledonous weeds and crop plants were placed in sandy loam in plastic or organic planting pots, covered with soil and cultivated in a greenhouse under controlled growth conditions. 2 to 3 weeks after sowing, the test plants were treated at the one-leaf stage. The compounds of the invention, formulated in the form of wettable powders (WP) or as emulsion concentrates (EC), were then sprayed onto the green parts of the plants as aqueous suspension or emulsion with addition of 0.5% additive at a water application rate of 600 l/ha (converted). After the test plants had been kept in the greenhouse under optimum growth conditions for about 3 weeks, the activity of the preparations was rated visually in comparison to untreated controls. For example, 100% activity=the plants have died, 0% activity=like control plants. Tables B1 to B10 below show the effects of selected compounds of the general formula (I) according to Table 1 on various harmful plants and an application rate corresponding to 80 g/ha, which were obtained by the experimental procedure mentioned above.

[18] = system: DIGSA: Digitaria sanguinalis; test: Post-emergence herbicidal efficacy at 1280 g/ha, DIGSA; conditions: rated visually after about 3 weeks vs untreated controls, 100% = plants have died, 0% = like control plants
Procedure, shortened: as §2

[19] = system: SETVI: Setaria viridis; test: Post-emergence herbicidal efficacy at 1280 g/ha, SETVI; conditions: visual rating about 3 weeks after treatment vs untreated controls
Procedure, shortened: as §2

[20] = system: ABUTH: Abutilon theophrasti; test: Pre-emergence herbicide efficacy at 1280 g/ha, ABUTH; conditions: visual scoring after about 3 weeks vs untreated controls
Procedure, shortened: as §1

[21] = system: POAAN: Poa annua; test: Post-emergence herbicidal efficacy at 1280 g/ha, POAAN; conditions: visual rating about 3 weeks after treatment vs untreated controls
Procedure, shortened: as §2

[22] = system: KCHSC: Kochia scoparia; test: Post-emergence herbicidal efficacy at 80 g/ha, KCHSC; conditions: visual rating about 3 weeks after treatment vs untreated controls
Method: as §6

[23] = system: VERPE: Veronica persica; test: Post-emergence herbicidal efficacy at 1280 g/ha, VERPE; conditions: visual rating about 3 weeks after treatment vs untreated controls
Procedure, shortened: as §2

[24] = system: VERPE: Veronica persica; test: Pre-emergence herbicide efficacy at 1280 g/ha, VERPE; conditions: visual scoring vs untreated controls
Procedure, shortened: as §1

[25] = system: ALOMY: Alopecurus myosuroides; test: Pre-emergence herbicide efficacy at 1280 g/ha, ALOMY; conditions: visual scoring after about 3 weeks vs untreated controls
Text: as §5

[26] = system: ECHCG: Echinochloa crus-galli; test: Post-emergence herbicidal efficacy at 1280 g/ha, ECHCG; conditions: rated visually after about 3 weeks vs untreated controls, 100% = plants have died, 0% = like control plants
Procedure, shortened: as §2

[27] = system: AMARE: Amaranthus retroflexus; test: Pre-emergence herbicide efficacy at 1280 g/ha, AMARE; conditions: visual scoring after about 3 weeks vs untreated controls
Procedure, shortened: as §1

[28] = system: MATIN: Matricaria inodora; test: Pre-emergence herbicide efficacy at 1280 g/ha, MATIN; conditions: visual scoring after about 3 weeks vs untreated controls
Procedure, shortened: as §1

With Fc1ccc(Oc2c(Cc3ncc(Cl)cn3)cccc2C(F)(F)F)cc1 [Example 1-40] the “Pre-emergence efficacy against DIGSA” value [1] was 100%, the “Post-emergence efficacy at 1280 g/ha against AMARE in %” value [2] was 100% and the “Pre-emergence efficacy against POAAN” value [3] was 100%. The “Post-emergence efficacy against STEME” value [4] was 100%, the “Pre-emergence efficacy against SETVI in %” value [5] was 100% and the “Post-emergence efficacy against AMARE” value [6] was 90%. The “Post-emergence efficacy against LOLRI” value [7] was 100%, the “Pre-emergence efficacy against STEME in %” value [8] was 100% and the “Pre-emergence efficacy against VIOTR in %” value [9] was 100%. The “Post-emergence efficacy against VERPE” value [10] was 90%, the “Pre-emergence efficacy against KCHSC” value [11] was 90% and the “Pre-emergence efficacy against LOLRI” value [12] was 100%. For the same compound, the “Post-emergence efficacy against KCHSC” value [13] was 100%, the “Post-emergence efficacy at 1280 g/ha against ABUTH in %” value [14] was 100% and the “Post-emergence efficacy at 1280 g/ha against ALOMY in %” value [15] was 100%. The “Pre-emergence efficacy against ECHCG” value [16] was 100%, the “Post-emergence efficacy against VIOTR” value [17] was 100% and the “Post-emergence efficacy at 1280 g/ha against DIGSA in %” value [18] was 90%. For the same compound, the “Post-emergence efficacy against SETVI” value [19] was 90%, the “Pre-emergence efficacy against ABUTH” value [20] was 100% and the “Post-emergence efficacy against POAAN” value [21] was 90%. The “Post-emergence efficacy against KCHSC” value [22] was 90%, the “Post-emergence efficacy against VERPE” value [23] was 100% and the “Pre-emergence efficacy against VERPE in %” value [24] was 100%. The “Pre-emergence efficacy against ALOMY” value [25] was 100%, the “Post-emergence efficacy at 1280 g/ha against ECHCG in %” value [26] was 100% and the “Pre-emergence efficacy against AMARE” value [27] was 100%. The “Pre-emergence efficacy against MATIN” value [28] was 90%.
